Data on 16 compounds can be found in PubChem BioAssay (NCI).

Structures are written as SMILES.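 Protocol summary: plate cells (96-well), add compound at 5 concentrations, incubate 48 h, interpolate endpoints linearly. GI50 marks 50% less growth. Definition used: TGI = concentration required for complete inhibition of growth.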

Assay in all cases: growth of human tumour cells (NCI), 48 h
Assay [1] concerns OVCAR-4 ovarian.
In assay [2] the test system is DU-145 prostate.
The subject of assay [3] is COLO 205 colon.
For assay [4], the system named is TK-10 renal.
For assay [5], the system named is SF-268 CNS.
For assay [6], the system named is SK-OV-3 ovarian.
Assay [7] deals with NCI-H522 lung.
Assay [8] deals with OVCAR-3 ovarian.
Assay [9] relates to SK-MEL-5 melanoma.
In assay [10] the test system is SK-MEL-2 melanoma.

As for `Nc1ccc(-c2ccc(N)cc2I)c(I)c1`, the GI50 was 17.5 µM in assay [1]; 21.8 µM in assay [2]; 17 µM in [3]; 22.8 µM in [4]; 20 µM in [5]; 17 µM in assay [6]. Also, the GI50 in assay [7] was 16.4 µM; in assay [8] it was 16.6 µM; in assay [9], 13.9 µM; in [10], 15.9 µM. Besides, the TGI in assay [1] is > 100 µM; in assay [2], 59.9 µM; in [3] it was 38.1 µM; in assay [4], 80.7 µM; in assay [5], > 100 µM; in assay [6], 44.4 µM. In addition, the TGI in assay [7] amounted to 36.7 µM; in assay [8], 35.3 µM; in assay [9] it was 27.2 µM; in [10], 37.4 µM.
As to `CSc1ccccc1C#Cc1ccccc1C#CCCCCO`, the GI50 in assay [1] is 17.7 µM; in [2], 4.73 µM; in assay [3], 15.8 µM; in assay [4], 13.7 µM; in assay [5], 13.7 µM; in assay [6], 15.8 µM. Further, the GI50 in assay [7] is 14.2 µM; in assay [8] it was 14.7 µM; in assay [9] it was 14 µM; in assay [10] it was 17.9 µM. Moreover, the TGI in assay [1] is 37.3 µM; in [2], 18 µM; in [3], 31.5 µM; in assay [4], 30.4 µM; in assay [5], 28.4 µM; in assay [6], 30.1 µM. Moreover, the TGI in [7] stood at 29.4 µM; in assay [8], 28.7 µM; in assay [9] it was 27.6 µM; in assay [10], 35.4 µM.
In the case of `S=C(Nc1cc(Cl)c(Cl)cc1Cl)SCc1ccccc1`, the TGI is 65.3 µM in assay [1]; > 100 µM in assay [2]; > 100 µM in assay [3]; 53.8 µM in assay [4]; > 100 µM in assay [5]; > 100 µM in [6]. Besides, the TGI in assay [7] is 59.5 µM; in assay [8] it was 49.3 µM; in assay [9], 37.7 µM; in assay [10] it was > 100 µM.
Turning to `O=C(CN(/C=C/C(=O)C(F)(F)F)c1ccccc1)c1ccc(Cl)c(Cl)c1`, the GI50 in assay [1] was 20.3 µM; in [2], 13 µM; in assay [3], 19.5 µM; in assay [4], 15.9 µM; in assay [5], 18.4 µM; in assay [6], 21.1 µM. Moreover, the GI50 in [7] is 11.1 µM; in assay [8], 14.1 µM; in [9] it was 13.2 µM; in assay [10] it was 12.4 µM. The TGI in assay [1] was found to be 45.6 µM; in assay [2] it was 30.6 µM; in assay [3] it was 42.4 µM; in assay [4] it was 32.8 µM; in assay [5] it was 40.7 µM; in [6], 40.1 µM. For the same compound, the TGI in assay [7] turned out to be 25 µM; in assay [8] it was 30 µM; in [9], 26.3 µM; in assay [10] it was 26.6 µM.
Regarding `CC12CC(OC(=O)[C@]1(C)O)[C@@H]([C@]1(O)CC[C@H]3[C@@H]4C[C@H]5O[C@]56[C@@H](O)C=CC(=O)[C@]6(C)[C@H]4CC[C@@]31C)C2` (stereo not given in full), the TGI in [1] was 24.4 µM; in assay [2], 86.7 µM; in [3], 10.7 µM; in assay [4], 20.2 µM; in assay [5], 30.2 µM; in [6], > 100 µM. Moreover, the TGI in assay [7] was 2.92 µM; in assay [8] it was 7.72 µM; in assay [9], 17.8 µM; in assay [10], 21 µM.
On to `CC(C)C[C@H](NC(=O)[C@@H](O)[C@H](N)Cc1ccc([N+](=O)[O-])cc1)C(=O)O`, for which the GI50 in assay [1], in assay [2], in assay [3], in assay [4], in assay [5] and in assay [6] was > 25 µM each time. Besides, the GI50 in [7] was > 25 µM; in assay [8] it was 0.0025 µM; in assay [9], > 25 µM; in assay [10] it was > 25 µM. The TGI in [1], in assay [2], in [3], in assay [4], in assay [5] and in [6] was > 25 µM in each case. In addition, the TGI in [7], in assay [8], in assay [9] and in assay [10] was > 25 µM in each case.
For the compound `COc1cc(C2CC(c3ccc(N(C)C)cc3)=NN2C(C)=O)cc(OC)c1OC` (stereo not given), the GI50 was 10.9 µM in assay [1]; 2.29 µM in assay [2]; 3.06 µM in [3]; 14.3 µM in assay [4]; 3.69 µM in assay [5]; 5.46 µM in [6]. The GI50 is 1.95 µM in assay [7], 0.352 µM in [8], 0.804 µM in [9] and 12.9 µM in [10]. Besides, the TGI in assay [1] is > 100 µM; in assay [2], > 35 µM; in [3], > 41.4 µM; in assay [4], > 100 µM; in [5] it was > 100 µM; in [6], > 100 µM. The TGI in assay [7] is > 27.1 µM; in [8] it was 1.84 µM; in [9] it was 17.6 µM; in assay [10] it was > 100 µM.
Consider `CC(C)N1C(NNC(=O)c2cnccn2)=NS(=O)(=O)c2ccccc21`, for which the GI50 in assay [1], in assay [2], in assay [3], in assay [4], in [5] and in assay [6] was > 100 µM in each case. For the same compound, the GI50 in [7], in assay [8], in [9] and in [10] was > 100 µM each time. The TGI in [1], in [2], in [3], in assay [4], in [5] and in assay [6] was > 100 µM each time. Further, the TGI in [7], in assay [8], in assay [9] and in [10] was > 100 µM throughout.
`COc1cc2c3c(n(C)c(=O)c2cc1OC)-c1cc2c(cc1/C3=C\C(N)CN)OCO2` (stereo not given): the GI50 was 5.44 µM in assay [1]; 2.02 µM in assay [2]; 2.08 µM in assay [3]; 1.45 µM in assay [4]; 0.692 µM in assay [5]; 2.45 µM in assay [6]. Besides, the GI50 was 0.394 µM in [7], 1.92 µM in assay [8], 2.8 µM in assay [9] and 4.71 µM in [10]. The TGI in assay [1] is > 100 µM; in [2], 10 µM; in assay [3] it was 12.1 µM; in assay [4], 26.5 µM; in assay [5] it was 15 µM; in assay [6], 13.1 µM. The TGI in assay [8] was 6.88 µM; in assay [9], 8.53 µM; in assay [10], > 22.8 µM.
Take `CCNCCNc1cc(C2CCCCC2)c(C#N)c2nc3ccccc3n12`: the GI50 in assay [1] is 2.1 µM; in assay [2], 2.37 µM; in assay [3], 1.58 µM; in assay [4], 2.41 µM; in assay [5], 1.9 µM; in [6], 1.81 µM. Further, the GI50 in [7] was 2.05 µM; in [8] it was 1.7 µM; in assay [9], 1.71 µM; in [10], 2.29 µM. Besides, the TGI turned out to be 6.42 µM in [1]; 5.79 µM in assay [2]; 3.41 µM in assay [3]; 6.12 µM in assay [4]; 4.38 µM in assay [5]; 3.48 µM in [6]. The TGI is 4.4 µM in [7], 3.29 µM in assay [8], 3.1 µM in [9] and 4.71 µM in assay [10].
Take `c1ccc(CSc2nnc3c4ccccc4c4ccccc4c3n2)cc1`: the TGI in assay [1] was > 96.3 µM; in [2] it was > 100 µM; in assay [3], > 100 µM; in assay [4], 84.5 µM; in assay [5], 67.9 µM; in assay [6] it was 50 µM. In addition, the TGI was 97.9 µM in [7], > 70.9 µM in assay [8], > 100 µM in assay [9] and > 79.7 µM in [10].
Regarding `COC(=O)C(F)C(Br)C(=O)OC` (stereo not given), the TGI stood at 19.8 µM in [1]; 27.5 µM in assay [2]; 3.46 µM in assay [3]; 5.37 µM in [4]; 24.4 µM in assay [5]; 34.6 µM in assay [6]. Further, the TGI in assay [7] was determined as 3.94 µM; in assay [8] it was 4.33 µM; in assay [9], 34 µM; in assay [10], 32.6 µM.
Take `CCN1C(=O)N(CC)C2C1NN=c1s/c(=C\c3cc4ccccc4[nH]3)c(=O)n12` (stereo not given): the GI50 in assay [1] is < 0.0162 µM; in assay [2], 0.0225 µM; in [3], 0.0201 µM; in assay [4] it was 2.11 µM; in assay [5] it was < 0.0229 µM; in assay [6], 0.0246 µM. Further, the GI50 in assay [7] is < 0.0164 µM; in assay [9], 0.0202 µM. Further, the TGI is > 100 µM in assay [1]; > 100 µM in assay [2]; 0.0448 µM in assay [3]; 32.3 µM in assay [4]; 20.4 µM in assay [5]; 17.3 µM in assay [6]. Moreover, the results for the TGI in assay [7], in assay [9] and in assay [10] were 1.02 µM, 0.063 µM and 33.9 µM, respectively.
For the compound `CC(=O)O[C@H]1CC[C@@]2(C)[C@@H](CC[C@@H]3[C@@H]2CC[C@]2(C)C=C(C=O)C[C@@H]32)C1`, the GI50 is 3.48 µM in [1]; 4.75 µM in assay [2]; 19 µM in assay [3]; 3.3 µM in [5]; 9.67 µM in assay [6]; 21.1 µM in assay [7]. For the same compound, the values for the GI50 in assay [8], in [9] and in assay [10] were 3.1 µM, 3.56 µM and 7.53 µM, respectively. Moreover, the TGI in [1] came to 13.8 µM; in [2], 15.9 µM; in assay [3], 39.2 µM; in assay [5] it was 11.2 µM; in assay [6] it was 21.7 µM; in [7], 45.6 µM. The TGI was found to be 9.04 µM in [8], 14.4 µM in [9] and 23.1 µM in assay [10].
Take `COC(=O)C1=C(OC(=O)c2ccc(Cl)cc2)C(C(=O)OC)[C@@]2(O)[C@@H](C(=O)OC)C(c3ccccc3Cl)C[C@@H]1[C@@H]2C(=O)OC` (stereo not given in full): the GI50 was 7.46 µM in assay [2]; 23.3 µM in [3]; 8 µM in [4]; 5.41 µM in assay [5]; 19.8 µM in assay [6]; 2.77 µM in assay [7]. Also, the GI50 in [8] is 1.76 µM; in assay [9] it was 5.19 µM; in [10], 2.51 µM. Moreover, the TGI was > 100 µM in assay [2]; > 100 µM in [3]; > 100 µM in assay [4]; > 100 µM in assay [5]; 91.9 µM in [6]; 7.92 µM in [7]. Moreover, the TGI is 5.95 µM in [8], 26.5 µM in assay [9] and 5.94 µM in assay [10].
For `CC1(C)CC[C@]2(C(=O)N3CCOCC3)CC[C@]3(C)C(=CC[C@@H]4[C@@]5(C)C/C(=C/c6ccncc6)C(=O)C(C)(C)[C@@H]5CC[C@]43C)[C@@H]2C1`, the GI50 in assay [1] is 2.34 µM; in assay [2] it was 2.77 µM; in [4], 6.46 µM; in [5] it was 6.33 µM; in assay [6] it was 3.58 µM; in [7], 1.3 µM. The GI50 is 2.06 µM in [8], 1.48 µM in [9] and 2.33 µM in assay [10]. The TGI was > 100 µM in assay [1]; 36.5 µM in assay [2]; > 100 µM in [4]; > 100 µM in [5]; > 100 µM in assay [6]; 6.72 µM in assay [7]. Further, the TGI in assay [8] is > 100 µM; in assay [9], 3.01 µM; in assay [10] it was 7.27 µM.
